{
  "source": "patent US20160038519A1",
  "about": "“ADMINISTRATION OF KARENITECIN FOR THE TREATMENT OF ADVANCED OVARIAN CANCER, INCLUDING CHEMOTHERAPY-RESISTANT AND/OR THE MUCINOUS ADENOCARCINOMA SUB-TYPES” (BioNumerik Pharmaceuticals, Inc., priority 2014, published 2016)",
  "key": {"[1]": {"test": "Phase I clinical studies of intravenous Karenitecin", "assay_type": "in vivo, human", "protocol": "Results from three Phase I studies indicate that Karenitecin can be safely administered to subjects at the dose level of 1.0 mg/m^2/day i.v. over a one hour period of time for 5 consecutive days in a 3-week treatment cycle. […] Any gastrointestinal toxicity is generally ≦grade 2 and is not dose-limiting.\nIntravenous administration of Karenitecin has been evaluated in three Phase I clinical studies in subjects with the following cancer types: (i) advanced solid tumors (adult subjects) (see, e.g., Schilsky, R. L., Hausheer, F. H., et al., Phase I trial of karenitecin administered intravenously daily for five consecutive days in subjects with advanced solid tumors using accelerated dose titration [abstract]. ASCO Abstract 758 (2000)); (ii) refractory or recurrent solid tumors (pediatric subjects); and (iii) recurrent malignant glioma (adult subjects). Intravenous administration of Karenitecin has also been evaluated in four Phase 2 clinical studies in adult subjects with the following cancer types: (i) primary malignant glioma; (ii) third-line treatment of persistent or recurrent epithelial ovarian or primary peritoneal carcinoma; (iii) malignant melanoma (see, e.g., Hausheer, F. H., et al., Phase II trial of Karenitecin (BNP1350) in malignant melanoma: clinical and translational study [abstract]. ASCO Abstract 7554 (2004); and (iv) relapsed or refractory non-small cell lung cancer (see, e.g., Miller, A. A., et al., MR for the Cancer and Leukemia Group B. Phase II trial of karenitecin in subjects with relapsed or refractory non-small cell lung cancer (CALGB 30004) Lung Cancer 48:399-407 (2005))."}, "[2]": {"target": "T1, Breast Cancer Resistance Protein (BCRP) (Homo sapiens, UniProt Q9UNQ0)", "T1 sequence (Q9UNQ0 1-655)": "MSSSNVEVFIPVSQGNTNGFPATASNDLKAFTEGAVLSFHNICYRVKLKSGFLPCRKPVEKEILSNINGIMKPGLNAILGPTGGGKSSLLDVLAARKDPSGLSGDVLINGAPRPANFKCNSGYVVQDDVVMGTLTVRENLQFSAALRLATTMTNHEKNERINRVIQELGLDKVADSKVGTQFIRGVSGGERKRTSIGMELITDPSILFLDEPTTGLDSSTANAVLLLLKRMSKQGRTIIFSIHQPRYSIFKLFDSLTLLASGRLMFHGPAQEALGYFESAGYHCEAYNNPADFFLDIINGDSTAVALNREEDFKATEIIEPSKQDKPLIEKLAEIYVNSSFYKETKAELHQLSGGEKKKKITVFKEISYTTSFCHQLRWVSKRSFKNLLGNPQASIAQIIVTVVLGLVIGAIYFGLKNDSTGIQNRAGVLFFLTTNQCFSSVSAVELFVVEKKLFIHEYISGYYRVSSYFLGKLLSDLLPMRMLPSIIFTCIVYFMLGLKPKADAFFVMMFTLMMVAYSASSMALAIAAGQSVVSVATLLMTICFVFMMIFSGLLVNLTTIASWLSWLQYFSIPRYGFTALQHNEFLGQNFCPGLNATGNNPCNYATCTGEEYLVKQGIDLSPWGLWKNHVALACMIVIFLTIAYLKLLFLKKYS", "conditions": "cited from earlier work"}, "Fischer rats": {"test_system": "Fischer rats", "conditions": "rat, in vivo, iv"}},
  "note": "“Also recorded” adds a separate entry of the source.",
  "data": [
    {"molecule": "CC[C@@]1(O)C(=O)OCc2c1cc1n(c2=O)Cc2c-1nc1ccccc1c2CC[Si](C)(C)C", "note": "[Karenitecin, (4S)-4-ethyl-4-hydroxy-11-[2-(trimethylsilyl)ethyl]-1H-pyrano[3′:4′:6,7]indolizino[1,2-b]quinoline-3,14(4H,12H)-dione]", "values": [
      {"measurement": "Gastrointestinal toxicity grade", "setting": "[1]; i.v. 1.0 mg/m^2/day x5, 3-week cycle, not dose-limiting", "value": "≤ 2", "unit": "grade"},
      {"measurement": "Dose-limiting toxicity", "setting": "[1]; i.v., Phase I clinical studies", "value": "non-cumulative, reversible myelosuppression; also recorded: reversible and non-cumulative neutropenia and thrombocytopenia"},
      {"measurement": "Hypersensitivity reactions reported by subjects", "setting": "[1]; to date", "value": "no hypersensitivity reactions"},
      {"measurement": "Sensitivity to tumor-mediated drug resistance mechanisms, including BCRP", "setting": "[2]", "value": "insensitive"},
      {"measurement": "Toxicities observed", "setting": "Fischer rats", "value": "reversible myelosuppression (predominantly neutropenia)"}
    ]}
  ]
}
